# Experimental data as given in EP4725941A1, “ARYLAMIDE DERIVATIVE HAVING ANTITUMOR ACTIVITY” (priority 2020, dated 2021).
# pIC50: −log10 of the molar value. Read-outs that look alike come from different tables or passages of the source.
# What was measured:
# MEK1 = molecular target: T1, MEK1 (Homo sapiens, UniProt Q02750); experiment: MEK1-inhibiting activity, fluorescent polarization method (CRAF/MEK1/ERK2 cascade, IMAP); assay type: biochemical; conditions: Table 3; read-out: MEK1 IC50
# T1 construct: purchased Thermo Fisher Scientific Inc. (MEK1, CRAF); Carna Biosciences, Inc. (ERK2)
# T1 sequence (Q02750 whole entry): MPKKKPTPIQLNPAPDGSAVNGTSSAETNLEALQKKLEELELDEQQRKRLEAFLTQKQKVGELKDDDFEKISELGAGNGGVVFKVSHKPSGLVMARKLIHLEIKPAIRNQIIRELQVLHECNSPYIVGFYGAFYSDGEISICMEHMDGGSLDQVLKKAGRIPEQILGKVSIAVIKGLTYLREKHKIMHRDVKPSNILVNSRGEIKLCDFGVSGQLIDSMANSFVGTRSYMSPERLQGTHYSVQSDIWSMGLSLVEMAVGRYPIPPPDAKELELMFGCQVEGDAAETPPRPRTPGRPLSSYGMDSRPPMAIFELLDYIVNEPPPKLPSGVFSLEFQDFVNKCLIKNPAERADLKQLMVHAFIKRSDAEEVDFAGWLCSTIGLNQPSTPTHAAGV
# Method: The MEK1-inhibiting activity of the compounds listed in Table 3 below were evaluated by the fluorescent polarization method as described below.
# BRAF = molecular target: T2, BRAF (Homo sapiens, UniProt P15056); experiment: BRAF-inhibiting activity, time-resolved fluorescence-fluorescence resonance energy transfer assay; assay type: biochemical
# T2 construct: purchased Eurofins Genomics KK; (BRAF); Thermo Fisher Scientific Inc. (MEK1)
# T2 sequence (P15056 417-766 limits assumed): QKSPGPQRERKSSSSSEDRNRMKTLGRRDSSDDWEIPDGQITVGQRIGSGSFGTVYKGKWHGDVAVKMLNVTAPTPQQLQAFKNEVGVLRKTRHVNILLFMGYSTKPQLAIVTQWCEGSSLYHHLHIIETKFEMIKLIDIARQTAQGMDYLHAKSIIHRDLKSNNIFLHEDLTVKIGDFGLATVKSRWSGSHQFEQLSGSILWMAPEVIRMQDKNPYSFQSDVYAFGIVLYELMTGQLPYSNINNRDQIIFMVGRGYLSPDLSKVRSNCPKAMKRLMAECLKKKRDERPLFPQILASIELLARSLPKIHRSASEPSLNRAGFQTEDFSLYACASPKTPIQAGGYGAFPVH
# Method: The BRAF-inhibiting activity of the compounds listed in Table 3 below was evaluated by the time-resolved fluorescence-fluorescence resonance energy transfer assay as described below.
# A549 = experiment: Cell proliferation-inhibiting activity (ATP in viable cells, CellTiter-Glo), A549; assay type: cell-based, human; conditions: human lung cancer cells, 4 days, read-out: A549 IC50
# Calu-6 = experiment: Cell proliferation-inhibiting activity (ATP in viable cells, CellTiter-Glo), Calu-6; assay type: cell-based, human; conditions: read-out: Calu-6 IC50
# NCI-H2122 = experiment: Cell proliferation-inhibiting activity (ATP in viable cells, CellTiter-Glo), NCI-H2122; assay type: cell-based, human; conditions: read-out: NCI-H2122 IC50
# [1] = Human liver microsome stability; assay type: in vitro ADME; conditions: human liver microsomes, pH 7.4
# [2] = Calu-6, 96 h, human lung cancer cells, 4 days
# [3] = NCI-H2122, 96 h, human lung cancer cells, 4 days
# [4] = human lung cancer cells, 4 days
SMILES,pIC50 (MEK1),pIC50 (BRAF; read-out: BRAF IC50; Table 3),"pIC50 (A549; A549, 96 h)",pIC50 (Calu-6; [2]),pIC50 (NCI-H2122; [3]),pIC50 (BRAF; Table 3; read-out: BRAF IC50),"pIC50 (Calu-6; Homo sapiens, Calu-6, 96 h)","pIC50 (NCI-H2122; Homo sapiens, NCI-H2122, 96 h)",microsomal CLint at 0.99 µM [1] [µL/min/mg],pIC50 (A549),pIC50 (Calu-6; [4]),pIC50 (NCI-H2122; [4])
CCS(=O)(=O)Nc1nccc(Cc2cc(C(=O)NC3CC3)c(Nc3ccc(I)cc3F)c(F)c2F)c1F [Compound A-39],7.39,7.85,7.52,7.10,8.15,–,–,–,–,–,–,–
"CC1(NS(=O)(=O)Nc2nccc(Cc3cc(C(N)=O)c(Nc4ccc(C5CC5)cc4F)c(F)c3F)c2F)CCC1 [Compound A-46, 2-(4-Cyclopropyl-2-fluoroanilino)-3,4-difluoro-5-[[3-fluoro-2-[(1-methylcyclobutyl)sulfamoylamino]pyridin-4-yl]methyl]benzamide]",6.09,–,–,–,–,7.52,6.44,7.51,23,–,–,–
"CS(=O)(=O)Nc1nccc(Cc2cc(C(=O)NC3CC3)c(Nc3ccc(I)cc3F)c(F)c2F)c1F [Compound B-14, N-Cyclopropyl-3,4-difluoro-2-(2-fluoro-4-iodoanilino)-5-[[3-fluoro-2-(methanesulfonamide)pyridin-4-yl]methyl]benzamide]",6.98,7.89,–,7.13,7.96,–,–,–,4,–,–,–
"CONC(=O)c1cc(Cc2ccnc(NS(C)(=O)=O)c2F)c(F)c(F)c1Nc1ccc(I)cc1F [Compound B-15, 3,4-Difluoro-2-(2-fluoro-4-iodoanilino)-5-[[3-fluoro-2-(methanesulfonamide)pyridin-4-yl]methyl]-N-methoxybenzamide]",8.10,8.40,–,7.22,8.22,–,–,–,13,–,–,–
"CCS(=O)(=O)Nc1nccc(Cc2cc(C(=O)NOC)c(Nc3ccc(I)cc3F)c(F)c2F)c1F [Compound B-16, 5-[[2-(ethylsulfonylamino)-3-fluoropyridin-4-yl]methyl]-3,4-difl uoro-2-(2-fluoro-4-iodoanilino)-N-methoxybenzamide]",8.40,7.92,–,8.05,9.00,–,–,–,10,–,–,–
"CC1(NS(=O)(=O)Nc2cccc(Cc3cc(C(N)=O)c(Nc4ccc(I)cc4F)c(F)c3F)c2F)CCC1 [Compound D-9, 3,4-Difluoro-2-(2-fluoro-4-iodoanilino)-5-[[2-fluoro-3-[(1-methylcyclobutyl)sulfamoylamino]phenyl]methyl]benzamide]",6.60,7.62,–,7.55,8.52,–,–,–,53,–,–,–
"CNS(=O)(=O)Nc1cccc(Cc2cc(C(=O)NOC)c(Nc3ccc(I)cc3F)c(F)c2F)c1F [Compound D-11, 3,4-Difluoro-2-(2-fluoro-4-iodoanilino)-5-[[2-fluoro-3-(methylsulfamoylamino)phenyl]methyl]-N-methoxybenzamide]",8.22,8.52,–,8.70,9.52,–,–,–,24,–,–,–
"CONC(=O)c1cc(Cc2cccc(NS(N)(=O)=O)c2F)c(F)c(F)c1Nc1ccc(I)cc1F [Compound D-12, 3,4-Difluoro-2-(2-fluoro-4-iodoanilino)-5-[[2-fluoro-3-(sulfamoylamino)phenyl]methyl]-N-methoxybenzamide]",7.82,7.85,–,8.22,9.40,–,–,–,18,–,–,–
"CONC(=O)c1cc(Cc2cccc(NS(=O)(=O)NC3(C)CCC3)c2F)c(F)c(F)c1Nc1ccc(I)cc1F [Compound D-13, 3,4-Difluoro-2-(2-fluoro-4-iodoanilino)-5-[[2-fluoro-3-[(1-methylcyclobutyl)sulfamoylamino]phenyl]methyl]-N-methoxybenzamide]",7.54,7.74,–,8.22,9.00,–,–,–,88,–,–,–
"CNS(=O)(=O)Nc1cccc(Cc2cc(C(N)=O)c(Nc3ccc(C4CC4)cc3F)c(F)c2F)c1F [Compound D-14, 2-(4-Cyclopropyl-2-fluoroanilino)-3,4-difluoro-5-[[2-fluoro-3-(methylsulfamoylamino)phenyl]methyl]benzamide]",5.80,–,–,–,–,8.15,6.93,8.00,15,–,–,–
"CNS(=O)(=O)Nc1cccc(Cc2cc(C(=O)NOC)c(Nc3ccc(C4CC4)cc3F)c(F)c2F)c1F [Compound D-16, 2-(4-Cyclopropyl-2-fluoroanilino)-3,4-difluoro-5-[[2-fluoro-3-(methylsulfamoylamino)phenyl]methyl]-N-methoxybenzamide]",7.32,–,–,–,–,8.22,7.77,9.00,51,–,–,–
COCC1(S(=O)(=O)Nc2cccc(Cc3cc(C(=O)NOC)c(Nc4ccc(I)cc4F)c(F)c3F)c2F)CC1 [Compound E-3],7.48,–,–,–,–,8.30,–,–,–,8.40,8.15,8.70
"CS(=O)(=O)Nc1cccc(Cc2cc(C(N)=O)c(Nc3ccc(I)cc3F)c(F)c2F)c1F [Compound E-13, 3,4-difluoro-2-(2-fluoro-4-iodoanilino)-5-[[2-fluoro-3-(methanesulfonamide)phenyl]methyl]benzamide]",–,9.00,–,–,–,–,–,–,–,7.52,7.08,8.22
"CONC(=O)c1cc(Cc2cccc(NS(C)(=O)=O)c2F)c(F)c(F)c1Nc1ccc(I)cc1F [Compound E-26, 3,4-Difluoro-2-(2-fluoro-4-iodoanilino)-5-[[2-fluoro-3-(methanesulfonamide)phenyl]methyl]-N-methoxybenzamide]",7.89,8.22,–,8.30,9.22,–,–,–,13,–,–,–
CC1(NS(=O)(=O)Nc2nccc(Cc3cc(C(=O)NC4CC4)c(Nc4ccc(C5CC5)cc4F)c(F)c3F)c2F)CCC1 [Compound G-5],6.12,–,–,–,–,7.11,6.43,7.24,86,–,–,–
"CONC(=O)c1cc(Cc2ccnc(NS(=O)(=O)NC3(C)CCC3)c2F)c(F)c(F)c1Nc1ccc(C2CC2)cc1F [Compound G-6, 2-(4-Cyclopropyl-2-fluoroanilino)-3,4-difluoro-5-[[3-fluoro-2-[(1-methylcyclobutyl)sulfamoylamino]pyridin-4-yl]methyl]-N-methoxybenzamide]",7.49,7.82,–,7.64,8.70,–,–,–,57,–,–,–
"CCS(=O)(=O)Nc1nccc(Cc2cc(C(=O)NOC)c(Nc3ccc(C4CC4)cc3F)c(F)c2F)c1F [Compound G-8, 2-(4-Cyclopropyl-2-fluoroanilino)-5-[[2-(ethylsulfonylamino)-3-fluoropyridin-4-yl]methyl]-3,4-difluoro-N-methoxybenzamide]",7.28,–,–,–,–,8.15,6.63,7.60,26,–,–,–
"CONC(=O)c1cc(Cc2ccnc(NS(C)(=O)=O)c2F)c(F)c(F)c1Nc1ccc(C2CC2)cc1F [Compound G-9, 2-(4-Cyclopropyl-2-fluoroanilino)-3,4-difluoro-5-[[3-fluoro-2-(methanesulfonamide)pyridin-4-yl]methyl]-N-methoxybenzamide]",6.64,–,–,–,–,7.89,6.35,7.17,22,–,–,–
"COCCNS(=O)(=O)Nc1nccc(Cc2cc(C(=O)NC3CC3)c(Nc3ccc(I)cc3F)n(C)c2=O)c1F [Compound J-7, N-Cyclopropyl-2-(2-fluoro-4-iodoanilino)-5-[[3-fluoro-2-(2-methoxyethylsulfamoylamino)pyridin-4-yl]methyl]-1-methyl-6-oxopyridine-3-car boxamide]",6.20,7.92,–,6.42,7.54,–,–,–,30,–,–,–
"CCS(=O)(=O)Nc1nccc(Cn2cc(C(=O)NC3CC3)c(Nc3ccc(I)cc3F)c(C)c2=O)c1F [Compound P-4, N-Cyclopropyl-1-[[2-(ethylsulfonylamino)-3-fluoropyridin-4-yl]methyl]-4-(2-fluoro-4-iodoanilino)-5-methyl-6-oxopyridine-3-carboxamide]",7.47,7.80,–,7.35,7.62,–,–,–,1,–,–,–
"CNS(=O)(=O)Nc1nccc(Cn2cc(C(=O)NC3CC3)c(Nc3ccc(I)cc3F)c(C)c2=O)c1F [Compound P-6, N-Cyclopropyl-4-(2-fluoro-4-iodoanilino)-1-[[3-fluoro-2-(methylsulfamoylamino)pyridin-4-yl]methyl]-5-methyl-6-oxopyridine-3-carboxamide]",7.89,8.05,–,8.10,8.40,–,–,–,4,–,–,–
"CNS(=O)(=O)Nc1nccc(Cn2cc(C(=O)NOC)c(Nc3ccc(I)cc3F)c(C)c2=O)c1F [Compound P-7, 4-(2-Fluoro-4-iodoanilino)-1-[[3-fluoro-2-(methylsulfamoylamino)pyridin-4-yl]methyl]-N-methoxy-5-methyl-6-oxopyridine-3-carboxamide]",8.15,8.15,–,7.14,8.15,–,–,–,12,–,–,–
